pIC50: −log10 of the molar value.
Experiments:
[1] = molecular target: DNA polymerase beta (Homo sapiens, UniProt P06746); test: Inhibition of DNA polymerase beta
[2] = molecular target: DNA nucleotidylexotransferase (Homo sapiens, UniProt P04053); test: Inhibition of human TdT
[3] = molecular target: T1, DNA polymerase alpha catalytic subunit (Homo sapiens, UniProt P09884); test: Inhibition of DNA polymerase alpha
T1 sequence (P09884 whole entry): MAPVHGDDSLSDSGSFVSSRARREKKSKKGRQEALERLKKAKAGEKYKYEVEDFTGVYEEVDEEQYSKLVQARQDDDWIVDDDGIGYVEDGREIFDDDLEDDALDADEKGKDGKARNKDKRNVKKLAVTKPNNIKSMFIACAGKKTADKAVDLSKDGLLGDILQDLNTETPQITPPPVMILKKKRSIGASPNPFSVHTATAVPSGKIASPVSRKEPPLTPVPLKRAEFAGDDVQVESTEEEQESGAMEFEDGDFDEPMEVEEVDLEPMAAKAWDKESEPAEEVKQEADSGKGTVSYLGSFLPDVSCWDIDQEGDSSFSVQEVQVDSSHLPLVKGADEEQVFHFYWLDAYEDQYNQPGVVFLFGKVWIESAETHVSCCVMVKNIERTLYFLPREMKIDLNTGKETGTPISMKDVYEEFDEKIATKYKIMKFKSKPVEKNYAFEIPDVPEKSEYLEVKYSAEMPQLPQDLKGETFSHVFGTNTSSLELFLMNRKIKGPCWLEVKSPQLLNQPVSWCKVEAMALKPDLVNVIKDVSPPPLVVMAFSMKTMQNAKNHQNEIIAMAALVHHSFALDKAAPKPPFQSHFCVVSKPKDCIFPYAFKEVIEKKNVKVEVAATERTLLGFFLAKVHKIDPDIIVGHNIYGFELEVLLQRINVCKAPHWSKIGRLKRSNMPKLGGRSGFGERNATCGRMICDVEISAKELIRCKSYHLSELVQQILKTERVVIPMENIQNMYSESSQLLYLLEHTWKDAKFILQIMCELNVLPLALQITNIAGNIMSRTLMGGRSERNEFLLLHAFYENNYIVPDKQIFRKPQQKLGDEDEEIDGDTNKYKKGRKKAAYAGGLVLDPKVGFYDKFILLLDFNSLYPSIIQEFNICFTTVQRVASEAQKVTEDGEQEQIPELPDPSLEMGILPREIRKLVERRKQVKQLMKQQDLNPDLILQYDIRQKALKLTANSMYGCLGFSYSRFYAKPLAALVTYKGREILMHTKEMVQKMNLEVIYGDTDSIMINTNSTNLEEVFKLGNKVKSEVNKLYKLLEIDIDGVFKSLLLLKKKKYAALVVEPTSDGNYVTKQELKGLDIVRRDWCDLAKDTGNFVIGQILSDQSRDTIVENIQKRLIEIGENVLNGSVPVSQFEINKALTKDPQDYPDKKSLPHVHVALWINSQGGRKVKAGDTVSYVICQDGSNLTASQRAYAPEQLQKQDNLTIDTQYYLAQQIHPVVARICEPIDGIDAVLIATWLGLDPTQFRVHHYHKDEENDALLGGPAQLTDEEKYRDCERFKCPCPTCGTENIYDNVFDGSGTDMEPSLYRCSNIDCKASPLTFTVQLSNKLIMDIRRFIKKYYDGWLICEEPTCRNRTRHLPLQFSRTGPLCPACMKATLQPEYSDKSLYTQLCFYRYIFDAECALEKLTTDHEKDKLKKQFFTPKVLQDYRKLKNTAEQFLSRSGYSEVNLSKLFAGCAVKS

Sequence of DNA nucleotidylexotransferase (P04053 whole entry): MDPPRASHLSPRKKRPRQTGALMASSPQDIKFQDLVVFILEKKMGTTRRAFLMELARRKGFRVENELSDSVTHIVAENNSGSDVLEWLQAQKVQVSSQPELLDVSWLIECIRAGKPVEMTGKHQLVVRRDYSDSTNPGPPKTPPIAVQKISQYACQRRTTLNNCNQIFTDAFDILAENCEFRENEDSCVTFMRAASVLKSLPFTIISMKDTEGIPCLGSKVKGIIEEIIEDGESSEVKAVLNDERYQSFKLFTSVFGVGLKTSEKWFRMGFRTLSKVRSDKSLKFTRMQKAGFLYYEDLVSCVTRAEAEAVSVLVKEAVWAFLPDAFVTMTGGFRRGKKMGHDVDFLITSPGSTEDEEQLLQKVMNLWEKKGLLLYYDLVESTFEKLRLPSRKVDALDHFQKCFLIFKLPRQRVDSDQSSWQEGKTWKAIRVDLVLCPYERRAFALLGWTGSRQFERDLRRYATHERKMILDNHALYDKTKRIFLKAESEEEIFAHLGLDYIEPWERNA

Structure (SMILES) | pIC50 [1] | pIC50 [2] | pIC50 [3]
CCCCCCCCCCCCCCCCC1=C[C@H](C(=O)O)[C@H]2C(=O)C(C(=O)OC)=C(CCCCCCCCCCCCCCCC)[C@H]2[C@H]1C(=O)OC | 5.49 | 5.60 | 5.72
CCCCCCCCCCCCCCCCC1=C[C@H](C(=O)O)[C@H]2C(=O)C(C(=O)OC(C)C)=C(CCCCCCCCCCCCCCCC)[C@H]2[C@H]1C(=O)OC(C)C | 5.36 | 4.70 | 5.48
CCCCCCCCCCCCCCCC[C@]1(O)C=C[C@H](O)[C@H]1C(=O)OC [PLAKEVULIN A] | 3.75 | – | 4.18
CCCCCCCCCCCCCCCCC1=C[C@H](C(=O)OC)[C@H]2C(=O)[C@]3(C(=O)OC)C[C@]3(CCCCCCCCCCCCCCCC)[C@H]2[C@H]1C(=O)OC | < 4.90 | < 4.90 | < 4.90
CCCCCCCCCCCCCCCC[C@]1(O)C=CC(=O)[C@H]1C(=O)OC [UNTENONE A] | 4.24 | – | 5.37
CCCCCCCCCCCCCCCCC1=C[C@H](C(=O)OCC)[C@H]2C(=O)C(C(=O)OC)=C(CCCCCCCCCCCCCCCC)[C@H]2[C@H]1C(=O)OC | 5.72 | 4.40 | 5.64
CCCCCCCCCCCCC(=O)/C=C1\[C@H](O)[C@@H](C(=O)OC)[C@H](CC)N1CCc1ccccc1 | 4.66 | < 4.30 | 4.60
CCCCCCCCCCCCC(=O)/C=C1\[C@H](O)[C@@H](C(=O)OC)[C@H](CC)N1Cc1ccccc1 | 4.52 | < 4.30 | 4.70
CCC1=C[C@H](C(=O)O)[C@H]2C(=O)C(C(=O)OC)=C(CC)[C@H]2[C@H]1C(=O)OC | < 4.30 | < 4.30 | < 4.30
CCCCCCCCCCCCCCCCC1=C[C@H](C(=O)NCCc2ccccc2)[C@H]2C(=O)C(C(=O)OC)=C(CCCCCCCCCCCCCCCC)[C@H]2[C@H]1C(=O)OC | 5.06 | < 4.90 | 5.16
CCCCCCCCCCCCC1=C[C@H](C(=O)O)[C@H]2C(=O)C(C(=O)OC)=C(CCCCCCCCCCCC)[C@H]2[C@H]1C(=O)OC | 5.64 | 5.07 | 5.72
CCCCCCCCCCCCCCCCC(=O)/C=C/C(=O)CC(=O)OC [E-ENEDIONE] | 5.06 | – | 5.43
CCCCCCCCCCCCC(=O)/C=C1\[C@@H](O)[C@@H](C(=O)OC)[C@H](CC)N1Cc1ccccc1 | 4.57 | < 4.30 | 4.71
CCCCCCCCCCCCC(=O)/C=C1\[C@H](O)[C@@H](C(=O)OC)[C@H](c2ccccc2)N1CCc1c[nH]c2ccccc12 | 5.00 | < 4.30 | 4.68
CCCCCCCCCCCCCCCCC1=C[C@H](C(=O)OCC)[C@H]2C(=O)C(C(=O)OC)=C(CCCCCCCCCCCCCCCC)[C@H]2[C@@H]1C(=O)OC | 5.62 | 4.32 | 5.46

From ChEMBL document CHEMBL1147790, “Synthetic analogues of the manzamenones and plakoridines which inhibit DNA polymerase” (Bioorg Med Chem Lett, 2006)
